Laboratory results from patent publication US6911443B2 (Bayer Aktiengesellschaft, priority 2000, dated 2005).

What follows are molecules tested against T1, human Syk (GST-Syk) (Homo sapiens, UniProt P43405) (assay: Syk tyrosine kinase inhibitory assay). Conditions: Table 17; IC50 classes; read-out: Activity grade.
T1 construct: A cDNA fragment encoding human Syk openreading frame was cloned; made in house; host or cells: Sf21 insect cells (baculovirus, transfer vector pAcG2T)
Type: biochemical
Method in brief: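 Readout: streptavidin-captured biotin-AL peptide probed with europium-4G10 anti-phosphotyrosine, time-resolved fluorescence (ex 340/em 615 nm). Reaction ran 1 h at room temperature with 30 μM ATP, 3 μM peptide, 0.65 nM Sf21-expressed GST-Syk and 0.25% DMSO, pH 8.0.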

SMILES | IC50
COc1ccc(-c2cc3nccn3c(N(C(C)=O)c3ccccc3)n2)cc1OC(C)=O [Example 10] | 2000 to 10000 nM

Same assay, conditions: in vitro; compounds as yielded by solid phase synthesis, purity about 40 to 90%

SMILES | Activity grade (IC50 class)
CCOC(=O)CN1CCN(c2nc(-c3ccc(OC)c(OC)c3)cc3nccn23)CC1 [Example 9-73] | C-D
COc1cc(-c2cc3nccn3c(Nc3ccccc3S(N)(=O)=O)n2)ccc1OCCN1CCOCC1 [Example 9-97] | C-D
COc1ccc(-c2cc3nccn3c(N(C)c3ccc(C(=O)O)cc3)n2)cc1OC [Example 11-42] | C-D

Same assay, conditions: in vitro; compounds as yielded by solid phase synthesis, purity about 40 to 90%; read-out: Activity grade (IC50 class)

SMILES | IC50
COc1ccc(-c2cc3nccn3c(N(C)C3CCN(C)C3)n2)cc1OC (stereo not shown) [Example 9-74] | 500 to 2000 nM
COc1ccc(-c2cc3nccn3c(N3CCSCC3)n2)cc1OC [Example 9-75] | 500 to 2000 nM
COc1ccc(-c2cc3nccn3c(N(C)CCN(C)C)n2)cc1OC [Example 9-76] | 2000 to 10000 nM
CCOC(=O)CN(C)c1nc(-c2ccc(OC)c(OC)c2)cc2nccn12 [Example 9-77] | 2000 to 10000 nM
COc1ccc(-c2cc3nccn3c(N3CC[C@H](N(C)C)C3)n2)cc1OC [Example 9-78] | 2000 to 10000 nM
COc1ccc(CNc2nc(-c3ccc(OC)c(OC)c3)cc3nccn23)c(OC)c1 [Example 9-80] | 500 to 2000 nM
COc1ccc(-c2cc3nccn3c(NCCN)n2)cc1OC [Example 9-81] | 500 to 2000 nM
COc1ccc(-c2cc3nccn3c(NCCN3CCCCC3)n2)cc1OC [Example 9-82] | 2000 to 10000 nM
COc1ccc(-c2cc3nccn3c(NCCc3c[nH]c4ccccc34)n2)cc1OC [Example 9-83] | < 500 nM
COc1ccc(-c2cc3nccn3c(NCCc3ccccn3)n2)cc1OC [Example 9-84] | 500 to 2000 nM
COC(=O)[C@H](Cc1c[nH]c2ccccc12)Nc1nc(-c2ccc(OC)c(OC)c2)cc2nccn12 [Example 9-85] | 2000 to 10000 nM
COc1ccc(-c2cc3nccn3c(NC3CCCC[C@@H]3N)n2)cc1OC (stereo partly shown) [Example 9-86] | 500 to 2000 nM
CCCNc1nc(-c2ccc(OC)c(OC)c2)cc2nccn12 [Example 9-87] | < 500 nM
COC(=O)CSc1nc(-c2ccc(OC)c(OC)c2)cc2nccn12 [Example 9-88] | < 500 nM
CCOC(=O)CSc1nc(-c2ccc(OC)c(OC)c2)cc2nccn12 [Example 9-89] | 500 to 2000 nM
COC(=O)CCSc1nc(-c2ccc(OC)c(OC)c2)cc2nccn12 [Example 9-90] | < 500 nM
COc1ccc(-c2cc3nccn3c(SCC(C)C(=O)O)n2)cc1OC (stereo not shown) [Example 9-91] | 500 to 2000 nM
CCCCOC(=O)CSc1nc(-c2ccc(OC)c(OC)c2)cc2nccn12 [Example 9-92] | 500 to 2000 nM
COc1ccc(-c2cc3nccn3c(Sc3cccc(C(=O)O)c3)n2)cc1OC [Example 9-93] | 500 to 2000 nM
COc1ccc(-c2cc3nccn3c(Sc3ccc(CCC(=O)O)cc3OC)n2)cc1OC [Example 9-94] | < 500 nM
COc1ccc(Nc2nc(-c3ccc(OCCN4CCOCC4)c(OC)c3)cc3nccn23)c(C(N)=O)c1 [Example 9-95] | < 500 nM
COc1ccc(Nc2nc(-c3ccc(OCCN4CCOCC4)c(OC)c3)cc3nccn23)cc1 [Example 9-96] | < 500 nM
COc1ccc(Nc2nc(-c3ccc(N4CCOCC4)c(OC)c3)cc3nccn23)c(C(N)=O)c1 [Example 9-98] | < 500 nM
COc1cc(-c2cc3nccn3c(Nc3ccccc3C(N)=O)n2)ccc1N1CCOCC1 [Example 9-99] | < 500 nM
COc1ccc(-c2cc3ncnn3c(Nc3ccccc3)n2)cc1OC [Example 9.79] | < 500 nM
COc1ccc(-c2cc3nccn3c(N3C(=O)c4ccccc43)n2)cc1OC [Example 9] | 2000 to 10000 nM

SMILES | IC50
COc1ccc(-c2cc3nccn3c(N(C(C)=O)c3ccccc3)n2)cc1OC(C)=O [Example 10] | < 500 nM
COc1ccc(-c2cc3nccn3c(Nc3ccccc3C(=O)N(C)C)n2)cc1OC [Example 11-1] | 500 to 2000 nM
COc1ccc(Nc2nc(-c3ccc(OC)c(OC)c3)cc3nccn23)c(C)c1 [Example 11-2] | < 500 nM
COc1ccc(-c2cc3nccn3c(Nc3cccc4c3C(=O)NC4=O)n2)cc1OC [Example 11-3] | < 500 nM
COC(=O)C(C)(C)Cc1ccc(Nc2nc(-c3ccc(OC)c(OC)c3)cc3nccn23)cc1 [Example 11-4] | < 500 nM
COc1ccc(-c2cc3nccn3c(Nc3ccc4c(c3)CCC(C(=O)O)C4)n2)cc1OC (stereo not shown) [Example 11-5] | < 500 nM
COc1ccc(-c2cc3nccn3c(N(C)c3ccc(S(=O)(=O)O)cc3)n2)cc1OC [Example 11-6] | 2000 to 10000 nM
COc1ccc(-c2cc3nccn3c(Nc3cccc(C)c3)n2)cc1OC [Example 11-7] | < 500 nM
COc1ccccc1Nc1nc(-c2ccc(OC)c(OC)c2)cc2nccn12 [Example 11-8] | < 500 nM
COc1ccc(-c2cc3nccn3c(Nc3ccc(C)cc3)n2)cc1OC [Example 11-9] | < 500 nM
COc1ccc(-c2cc3nccn3c(Nc3ccccc3OC(F)(F)F)n2)cc1OC [Example 11-10] | 500 to 2000 nM
COc1ccc(-c2cc3nccn3c(Nc3cccc(C(N)=O)c3)n2)cc1OC [Example 11-11] | < 500 nM
COc1ccc(-c2cc3nccn3c(Nc3ccc4[nH]nnc4c3)n2)cc1OC [Example 11-12] | < 500 nM
COc1ccc(-c2cc3nccn3c(Nc3ccccc3C(=O)NN)n2)cc1OC [Example 11-13] | 2000 to 10000 nM
COc1ccc(-c2cc3nccn3c(Nc3ccc(/C=C/C(=O)OC(C)(C)C)cc3C(N)=O)n2)cc1OC [Example 11-14] | < 500 nM
COc1ccc(Nc2nc(-c3ccc(OC)c(OC)c3)cc3ncnn23)cc1 [Example 11-15] | < 500 nM
COc1ccc(-c2cc3nccn3c(Nc3ccccc3)n2)cc1OC [Example 11-16] | < 500 nM
COc1ccc(Nc2nc(-c3ccc(OC)c(OC)c3)cc3nccn23)cc1 [Example 11-17] | < 500 nM
COc1ccc(-c2cc3nccn3c(N(C)c3ccccc3)n2)cc1OC [Example 11-18] | < 500 nM
COc1ccc(-c2cc3nccn3c(Nc3ccc(SCC(=O)O)cc3)n2)cc1OC [Example 11-20] | < 500 nM
COc1ccc(-c2cc3nccn3c(Nc3ccc(CCCC(=O)O)cc3)n2)cc1OC [Example 11-21] | < 500 nM
COc1ccc(-c2cc3nccn3c(Nc3ccc(CC(=O)O)cc3)n2)cc1OC [Example 11-22] | < 500 nM
COc1ccc(-c2cc3nccn3c(Nc3ccc(C(=O)NCC(=O)O)cc3)n2)cc1OC [Example 11-23] | < 500 nM
COc1ccc(-c2cc3nccn3c(Nc3ccc(CCC(=O)O)cc3)n2)cc1OC [Example 11-24] | < 500 nM
COc1ccc(-c2cc3nccn3c(N(C)c3ccccc3OC)n2)cc1OC [Example 11-25] | 500 to 2000 nM
COC(=O)c1ccc(Nc2nc(-c3ccc(OC)c(OC)c3)cc3nccn23)cc1 [Example 11-26] | < 500 nM

SMILES | IC50
COc1ccc(-c2cc3nccn3c(Nc3cccc(S(=O)(=O)CCO)c3)n2)cc1OC [Example 11-27] | < 500 nM
COc1ccc(-c2cc3nccn3c(Nc3ccc(C(=O)O)cc3)n2)cc1OC [Example 11-28] | < 500 nM
COc1ccc(-c2cc3nccn3c(Nc3ccc(O)cc3)n2)cc1OC [Example 11-29] | < 500 nM
COc1ccc(-c2cc3nccn3c(Nc3cccc(O)c3)n2)cc1OC [Example 11-30] | < 500 nM
COc1ccc(-c2cc3nccn3c(Nc3ccccc3O)n2)cc1OC [Example 11-31] | < 500 nM
COc1ccc(-c2cc3nccn3c(Nc3ccc(N4CCOCC4)cc3)n2)cc1OC [Example 11-32] | < 500 nM
COc1ccc(-c2cc3nccn3c(Nc3ccc([N+](=O)[O-])cc3)n2)cc1OC [Example 11-33] | < 500 nM
COc1ccc(-c2cc3nccn3c(Nc3ccc(N(C)C)cc3)n2)cc1OC [Example 11-34] | < 500 nM
CCC(=O)c1ccc(Nc2nc(-c3ccc(OC)c(OC)c3)cc3nccn23)cc1 [Example 11-35] | < 500 nM
COc1ccc(-c2cc3nccn3c(Nc3ccc(C(N)=O)cc3)n2)cc1OC [Example 11-36] | < 500 nM
COc1ccc(-c2cc3nccn3c(Nc3cccc(CO)c3)n2)cc1OC [Example 11-37] | < 500 nM
COc1ccc(-c2cc3nccn3c(Nc3cc(F)cc(F)c3)n2)cc1OC [Example 11-39] | < 500 nM
COc1ccc(-c2cc3nccn3c(Nc3cc(F)c(F)cc3F)n2)cc1OC [Example 11-40] | < 500 nM
COc1ccc(-c2cc3nccn3c(Nc3ccc(F)cc3C(=O)O)n2)cc1OC [Example 11-41] | < 500 nM
COc1ccc(-c2cc3nccn3c(N(C)c3ccc([N+](=O)[O-])cc3)n2)cc1OC [Example 11-43] | < 500 nM
COc1ccc(-c2cc3nccn3c(N(C)c3ccc(F)cc3F)n2)cc1OC [Example 11-44] | < 500 nM
COc1ccc(-c2cc3nccn3c(N(C)c3ccc(Cl)cc3)n2)cc1OC [Example 11-45] | 500 to 2000 nM
COc1ccc(-c2cc3nccn3c(N(C)c3ccc(OC(F)(F)F)cc3)n2)cc1OC [Example 11-46] | 500 to 2000 nM
C=CCN(c1ccccc1)c1nc(-c2ccc(OC)c(OC)c2)cc2nccn12 [Example 11-47] | < 500 nM
COc1ccc(-c2cc3nccn3c(N(CCC#N)c3ccccc3)n2)cc1OC [Example 11-48] | < 500 nM
COc1ccc(N(C)c2nc(-c3ccc(OC)c(OC)c3)cc3nccn23)cc1 [Example 11-49] | 500 to 2000 nM
COc1ccc(-c2cc3nccn3c(N(C)c3cccc(Cl)c3)n2)cc1OC [Example 11-50] | < 500 nM
COc1ccc(-c2cc3nccn3c(Nc3cccc(C(=O)O)c3C)n2)cc1OC [Example 11-51] | 500 to 2000 nM
COc1ccc(-c2cc3nccn3c(Nc3cccc(Br)c3)n2)cc1OC [Example 11-52] | < 500 nM
COc1ccc(-c2cc3nccn3c(Nc3ccccc3F)n2)cc1OC [Example 11-53] | < 500 nM
COc1ccc(-c2cc3nccn3c(Nc3ccc(F)cc3F)n2)cc1OC [Example 11-54] | < 500 nM
